# How the values were obtained:
# [1] = tested on: MTC strain (Mycobacterium tuberculosis); assay: Drug susceptibility testing of the patient's MTC strain; type: cell-based
# [2] = tested on: Mycobacterium tuberculosis Complex (MTC); conditions: human, in vivo
SMILES,drug susceptibility testing result ([1]; MTC strain of patient 21),drug susceptibility testing result ([1]; MTC strain of patient 23),analysis of DNA in urine [2]
NNC(=O)c1ccncc1 [Isoniazid],resistance,resistance,
"Nc1ccc(C(=O)O)c(O)c1 [PAS, para-aminosalicylic acid]",,,negative
CCCc1cc(C(N)=S)ccn1 [Prothionamid],resistance,resistance,
[H]/N=C(/N)N[C@H]1[C@H](O)[C@@H](O)[C@H](O[C@@H]2O[C@@H](C)[C@](O)(C=O)[C@H]2O[C@@H]2O[C@@H](CO)[C@H](O)[C@@H](O)[C@@H]2NC)[C@@H](N/C(N)=N\[H])[C@@H]1O [Streptomycin],resistance,resistance,

# Reference: patent US20160289745A1, “NUCLEIC ACID ASSAY FOR DIAGNOSING OR […] PATHOGEN INFECTION IN A BODILY FLUID FROM A SUBJECT TREATED WITH AN ANTI-[…]” (priority 2012, published 2016)
